Key:
watermelon seeds = experiment: Germination of treated watermelon seeds; settings: 0.05% SDS alone (negative control)
[1] = test system: Clavibacter michiganenses subsp. michiganenses (CMM); settings: 0.5% levulinic acid, 30° C., 30 hr, OD 600 nm
Experimental: (§1) The effect of levulinic acid on in vitro growth of a range of phytobacteria was determined using a Microbiology Reader BioscreenC (Transgalactic Ltd.; Helsinki, Finland) according to manufacturer's instructions. Briefly, inoculum was generated by transferring one colony of each bacterium from a three-day-old nutrient agar culture (Difco) to 5 ml of nutrient broth. Broth cultures were incubated overnight at 30° C. with continuous agitation and cells from 1 ml of broth were harvested by centrifugation (16,200×g) for 3 min and adjusted to about 3.0×10^8 CFU/ml (ODA600 nm=0.3) spectrophotometrically (Spectronic 20, Bausch and Lomb, Rochester, N.Y.). Cell suspensions were ten-fold serially diluted to desired concentrations, and 10 μl of each suspension was transferred to a single well in a honeycomb plate (Oy Growth Curves AB Ltd., Helsinki, Finland) containing 190 μl of nutrient broth amended with 3%, 1% or 0.5% levulinic acid. This yielded a starting suspension of about 1.5×10^4 CFU/ml. The microplate containing ten replicates of each bacterium×levulinic acid concentration treatment was incubated at 30° C. with continuous agitation in a BioscreenC MBR incubator/reader. Optical density measurements of each well were taken at a wavelength of 600 nm at 30 min intervals for 30 hr.

[2] = test system: Xanthomonas campestris pv. vesicatoria (XCV)
Experimental: (§2) The ability of combinations of levulinic acid and SDS to kill a range of plant pathogenic bacteria in vitro was tested. Nutrient broth liquid cultures were supplemented with 3%, 1%, or 0.5% levulinic acid. A range of gram-negative plant pathogenic bacteria was screened, including Acidovorax avenae subsp. citrulli, Erwinia (Pectobacterium) carotovora subsp. carotovora, Xanthomonas campestris pv. campestris, Xanthomonas axonopodis pv. vesicatoria and Pantoea ananatis subsp. ananatis. […] Each bacterium was evaluated 10 times and the experiment was repeated.
as §1

[3] = test system: Xanthomonas campestris pv. campestris (XCC)
Experimental: as §2, §1

[4] = test system: Acidovorax avenae subsp. citrulli (Aac)
Experimental: as §2, §1

Pantoea ananatis (PNA) = test system: Pantoea ananatis (PNA)
Experimental: as §2, §1

[5] = test system: Erwinia carotovora subsp. carotovora (ECC)
Experimental: as §2, §1

[6] = 0.5% levulinic acid, 30° C., 30 hr, OD 600 nm

## CCCCCCCCCCCCOS(=O)(=O)[O-].[Na+] [0.05% SDS, sodium dodecyl sulfate]
Watermelon seeds
  Germination percentage: 89.25%

## CC(=O)CCC(=O)O [levulinic acid, Levulinic acid]
[1]
  In vitro growth in nutrient broth: prevented the growth
[2]
  Kind of action (broth cultures plated after incubation): bactericidal rather than bacteristatic
[2]; 0.5% levulinic acid
  Number of viable cells in the liquid broth: killed the pathogens
[2]; [6]
  In vitro growth in nutrient broth: prevented the growth
[3]
  Kind of action (broth cultures plated after incubation): bactericidal rather than bacteristatic
[3]; 0.5% levulinic acid
  Number of viable cells in the liquid broth: killed the pathogens
[3]; [6]
  In vitro growth in nutrient broth: prevented the growth
[4]
  Kind of action (broth cultures plated after incubation): bactericidal rather than bacteristatic
[4]; 0.5% levulinic acid
  Number of viable cells in the liquid broth: killed the pathogens
[4]; [6]
  In vitro growth in nutrient broth: prevented the growth
Pantoea ananatis (PNA)
  Kind of action (broth cultures plated after incubation): bactericidal rather than bacteristatic
Pantoea ananatis (PNA); 0.5% levulinic acid
  Number of viable cells in the liquid broth: killed the pathogens
Pantoea ananatis (PNA); [6]
  In vitro growth in nutrient broth: prevented the growth
[5]
  Kind of action (broth cultures plated after incubation): bactericidal rather than bacteristatic
[5]; 0.5% levulinic acid
  Number of viable cells in the liquid broth: killed the pathogens
[5]; [6]
  In vitro growth in nutrient broth: prevented the growth
